Like-named read-outs stand apart in the source and are kept apart here.

Assay [1] has as its system Rhizopus oryzae RCPF F-1537/1722. Description: Antifungal activity, 2-fold serial dilutions in Saburo glucose broth. Type of assay: cell-based, Rh. oryzae. Particulars: for MIC: read-out: The value of the MIC. The protocol:
(§1) The study of the antifungal activity of compound I in vitro was carried out in accordance with [Metodicheskiye rekomendatsii No 2. Mikologicheskoye issledovaniye ob″yektov okruzhayushchey sredy i opredeleniye protivogribkovoy aktivnosti razlichnykh veshchestv.—GOU DPO SPbMAPO NII meditsinskoy mikologii im. P. N. Kashkina, GBOU VPO SZGMU im. I. I. Mechnikova Minzdrava. SPb.: Izd. Dom SPbMAPO.—2008.—S. 16. Methodological recommendations No 2. Mycological examination of environmental objects and determination of antifungal activity of various substances.—State Educational Institution of St. Petersburg Medical Academy of Postgraduate Education with Scientific Research Institute of Medical Mycology named after P. N. Kashkin, State Educational Institution of Higher Professional Education North-West State Medical University named after I. I. Mechnikov, Ministry of Health. St. Petersburg.:: Publishing House SPbMAPO.—2008.—P. 16].
(§2) The study of the antifungal activity of substances in vitro was carried out in a liquid nutrient medium (Saburo glucose broth) in biological tubes by the method of 2-fold serial dilutions. In test tubes, three parallel series of dilutions of the test substance were prepared in the following way.
(§3) Saburo's liquid broth was sterilely poured in 3 ml into each tube; 4.5 ml was poured into the first tube of the row. A total of 14 tubes were used in a row; of which the last was a control one. […] The growth of cultures was initially assessed visually, comparing the growth of microorganisms in the presence of test compounds with the growth of culture without them. […] The first lowest concentration of the substance (from a series of consecutive dilutions), where the growth of fungi was suppressed or not visually determined, was considered the minimum inhibitory concentration (MIC).
(§4) For the preparation of inoculum, were respectively used pure (2-5) days cultures of yeast and mycelial fungi, grown on Saburo's dense nutrient broth. […] The inoculum was used within 15 minutes after preparation; the purity of the fungal strains was monitored before each experiment. […]

In the next assay the test system is Stylonychia mytilus. Description: Antiprotozoal activity by death of protozoa. Type of assay: cell-based. Particulars: for IC50: read-out: IC50 (95% confidence interval). The protocol:
Evaluation of the antiprotozoal activity of compound I was determined by the viability of the protozoa genus of hypotrichs Stylonychia mytilus in a nutrient medium in the presence of the studied substances. A mother liquor of compound I (10 mg/ml) was prepared in a mixture of DMSO and 96% ethanol (1:1). A 1% aqueous solution of DMSO and ethyl alcohol served as a negative control, and miramistin, benzalkonium chloride, and chlorhexidine were used as reference preparations. Then, from the mother liquors by repeated dilutions with water, working solutions were prepared corresponding to doses of 5; 10; 20; 25; 50; 75; 100 and 150 μg/ml. 10 μl of culture medium with protozoa and 10 μl of a solution of the test substance were applied to a chamber slide. The experiment was done in five replicates.
Slides were examined under a light microscope, antiprotozoal activity of substances (MIC and IC50) were determined by the death of protozoa. The Hill regression model with 5 parameters was used for the analysis.

For assay [2], the system named is Candida albicans RCPF Y-401/NCTC-885-653. Description: Antifungal activity, 2-fold serial dilutions in Saburo glucose broth. Format: cell-based, C. albicans. Particulars: for MIC: Candida albicans. How it is done:
as §1, §2
Saburo's liquid broth was sterilely poured in 3 ml into each tube; 4.5 ml was poured into the first tube of the row. A total of 14 tubes were used in a row; of which the last was a control one. 400 mg of the test substance was taken as a standard sample and dissolved in 10 ml of distilled water. Thus, the initial dilution contained the test substance at a concentration of 40000 ug/ml. Then 0.5 ml of this dilution was introduced into the first test tube of the series (with 4.5 ml of medium), thereby diluting the concentration of the substance by another 10 times. Therefore, the first tube of the series contained 4000 μg/ml of the test substance. Then, 3 ml of the solution was taken from the first tube and transferred to the second tube, thoroughly purged, then 3 ml of the solution were taken again from the second tube and transferred to the third tube, etc.; from the penultimate tube, 3 ml was poured. […] The growth of cultures was initially assessed visually, comparing the growth of microorganisms in the presence of test compounds with the growth of culture without them. […] The first lowest concentration of the substance (from a series of consecutive dilutions), where the growth of fungi was suppressed or not visually determined, was considered the minimum inhibitory concentration (MIC).
as §4

Assay [3] relates to Aspergillus fumigates RCPF F-1248/880. The description is as above. The settings on record: for MIC: Aspergillus. Format: cell-based, Asp. fumigates. How it is done:
as §1, §2, §3, §4

[4] abbreviates: death of protozoa, Hill regression.
The mark [5] stands for this setting: C. albicans RCPF Y-401/NCTC-885-653.

With `CCCCCCCCCCCC[N+](C)(C)Cc1cnc(C[N+](C)(C)CCCCCCCCCCCC)c2c1COC(CC)O2` (stereo not shown) [Compound I, 5,8-(Bis(methylene (N, N-dimethyl-N-dodecylammonium))-2-ethyl-4H-[1,3]dioxino [4,5-c]pyridiniumdichloride], the MIC in assay [1] (Rh. nigricans RCPFF-l537/1722) was determined as 62.5 mg/L; with Stylonychia mytilus (death of protozoa, read-out: MIC), 25 mg/L; in assay [2] (NCTC885, C. albicans RCPF Y-401/NCTC-885-653, read-out: The value of the MIC), 62.5 mg/L; in assay [3] (RCPFF1248/880, Asp. fumigates RCPF F-l248/880, read-out: The value of the MIC) it was 62.5 mg/L. Moreover, the IC50 with Stylonychia mytilus (setting [4]) stood at 59 mg/L.
Consider “alkyldimethyl(phenylmethyl) ammonium chloride [Benzalconium chloride]”, for which the “The value of the MIC” value in assay [1] (Rh. nigricans RCPFF-l537/1722) amounted to 15.6 mg/L; in assay [2] (setting [5]) it was 7.8 mg/L; in assay [3] (Asp. fumigates RCPF F-l248/880), 15.6 mg/L. Besides, the MIC against Stylonychia mytilus (death of protozoa) was 30 mg/L. Further, the “IC50 (95% confidence interval)” value in the assay with Stylonychia mytilus (setting [4]) is 67 (66-69) μg/ml.
For `CCCCCCCCCCCCCC(=O)NCCC[N+](C)(C)Cc1ccccc1.O.[Cl-]` [Miramistin, benzyldimethyl [3-(myristoylamino)propyl]-ammonium chloride monohydrate], the MIC in assay [1] is 62.5 mg/L; with Stylonychia mytilus it was 50 mg/L; in assay [2] (NCTC885, read-out: The value of the MIC), over 500 mg/L; in assay [3] (RCPFF1248/880, read-out: The value of the MIC), 31.2 mg/L. In addition, the IC50 in the assay with Stylonychia mytilus was 92 mg/L. Besides, the “The value of the MIC” value in assay [2] (setting [5]) is “inactive”.

Source of the values: US11014934B2, “Antiseptic drug” (AO “TATKHIMFARMPREPARATY”, priority 2017, dated 2021).
